According to ChEMBL document CHEMBL3734699, “A new cerebroside from the fruiting bodies of Hericium erinaceus and its applicability to cancer treatment” (Bioorg Med Chem Lett, 2015):
Active and inactive are the calls of the source. The calls are words filed in the database; no cut-off is given here.

Legend:
[1] = test system: HUVEC; test: Antiangiogenesis activity in HUVEC assessed as inhibition of VEGF-induced tube formation at 50 uM; type: functional, cell-based; conditions: Homo sapiens
[2] = test system: HUVEC; test: Cytotoxicity in HUVEC assessed as reduction in cell viability up to 50 uM; type: cell-based; conditions: human
[3] = target: Acetylcholinesterase (Homo sapiens) (UniProt P22303); test: Inhibition of acetylcholine esterase (unknown origin) up to 200 uM by Ellman's colorimetric method
Sequence of Acetylcholinesterase (Homo sapiens) (P22303 whole entry): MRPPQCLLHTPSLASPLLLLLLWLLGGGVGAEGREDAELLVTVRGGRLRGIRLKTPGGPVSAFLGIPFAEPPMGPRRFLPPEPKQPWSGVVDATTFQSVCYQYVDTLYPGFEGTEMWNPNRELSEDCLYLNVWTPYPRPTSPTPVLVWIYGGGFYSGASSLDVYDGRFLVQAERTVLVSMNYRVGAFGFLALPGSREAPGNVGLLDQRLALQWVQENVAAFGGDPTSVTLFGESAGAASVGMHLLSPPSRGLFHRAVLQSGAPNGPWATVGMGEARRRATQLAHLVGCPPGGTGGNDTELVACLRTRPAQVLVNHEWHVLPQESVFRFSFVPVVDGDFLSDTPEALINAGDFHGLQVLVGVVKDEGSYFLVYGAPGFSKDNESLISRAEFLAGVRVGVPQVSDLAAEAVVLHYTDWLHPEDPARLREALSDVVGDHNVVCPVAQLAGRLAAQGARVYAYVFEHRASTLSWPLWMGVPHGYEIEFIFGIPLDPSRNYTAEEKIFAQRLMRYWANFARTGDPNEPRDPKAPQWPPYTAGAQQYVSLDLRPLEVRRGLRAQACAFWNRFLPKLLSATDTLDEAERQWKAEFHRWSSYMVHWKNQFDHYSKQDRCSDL

[4] = test system: LLC-PK1; test: Renoprotective activity in pig LLC-PK1 cells assessed as inhibition of cisplatin-induced nephrotoxicity at 100 to 200 uM preincubated for 2 hrs followed by cisplatin challenge measured after 24 hrs by MTT assay; type: functional, cell-based; conditions: Sus scrofa
[5] = Antioxidant activity of the compound assessed as DPPH radical scavenging activity by colorimetric method; type: physicochemical
[6] = test system: HUVEC; test: Antiangiogenesis activity in HUVEC assessed as inhibition of VEGF-induced tube formation at 25 uM; type: functional, cell-based; conditions: Homo sapiens

## CCCCCCCCCCCCCCCC[C@@H](O)C(=O)N[C@@H](CO[C@@H]1O[C@H](CO)[C@@H](O)[C@H](O)[C@H]1O)[C@H](O)/C=C/CC/C=C(\C)CCCCCC
[1]
  Activity: Active
[2]
  Activity: Non-toxic
[3]
  inhibition: inactive
[4]
  Activity: Active
[5]
  Activity: Not Active
[6]
  Activity: Active

## CC(C)=CCC[C@](C)(O[C@@H]1O[C@H](CO)[C@@H](O)[C@H](O)[C@H]1O)[C@H]1CC[C@]2(C)[C@@H]1[C@H](O)C[C@@H]1[C@@]3(C)CC[C@H](O)C(C)(C)[C@@H]3CC[C@]12C
[6]
  Activity: Active
